Counter-ions that a name gives are not always drawn.
Key:
[1] = target: T1, β2-receptors (Mus musculus, UniProt P18762); assay: Inhibition of insulin-mediated incorporation of 14C-glucose into glycogen in isolated soleus muscle (β2-effect)
T1 construct: Soleus muscle from mice were dissected; from tissue; host or cells: mouse soleus muscle
Description: (§1) β-Adrenergic receptors can be divided into β1, β2 and β3 -subtypes. Activation of β1 -receptors invokes increases in heart rate while activation of β2 -receptors stimulates glycogen breakdown in muscle and thereby prevents glycogen synthesis. Activation of β3 -receptors stimulates lipolysis (the breakdown of adipose tissue triglycerides to glycerol and free fatty acids), and thereby promotes the loss of fat mass.
The β2 -effect of the compounds was determined by their ability to inhibit the insulin-mediated incorporation of ^14 C-glucose into glycogen in isolated muscle. Soleus muscle from mice were dissected, tied at each end, and placed in a clamp to maintain tension. The clamped muscle was added to a vial that contained 2 ml of KHB with 1.5% bovine serum albumin, 0.3 mU/ml insulin, 5 mM (U^-14 C) glucose, and the appropriate additions of compound or vehicle. The vial was gassed with 95% O2 -5% CO2, capped, and the tissue incubated for one hour in a rotating water bath at 37° C. The muscle was then removed, rinsed in ice-cold saline, blotted and weighed. It was then added to 1 ml of 30% KOH containing 5 mg/ml of oyster glycogen, boiled for 10 minutes, and 0.4 ml of 2% Na2 SO4 and 3.2 ml of 100% ethanol added. After standing overnight at 4° C., the glycogen was pelleted by centrifugation, washed once with 66% ethanol, and repelleted. The pellet was dissolved in 1 ml of water and the amount of radioactivity present determined by liquid scintillation.

[2] = test system: fa/fa rats; assay: Change in weight and food consumption, compound in chow, obese rats; format: in vivo, rat (fa/fa)
Description: (§2) The compounds of this invention were tested for hypoglycemic and anti-obesity activity according to the following procedure.
(§3) Obese mice (C57 B1/6J (ob/ob)), and/or diabetic mice (C57 B1/KsJ (db/db)) were obtained from Jackson Laboratories, Bar Harbor, Maine. Obese rats (fa/fa) were obtained from Charles River Laboratories, Wilmington, Mass. Obese mice were 8 weeks of age and diabetic mice were 9 weeks of age at the start of the test. Obese rats were 12-14 weeks of age at the start.
(§4) The test compounds were dissolved in methanol, mixed with powdered Purina rodent chow on a weight of compound to weight of chow basis and thoroughly dried.
(§5) Groups of 6 control mice or rats received vehicle (methanol) treated chow.
Groups of 6 test rats were fed 25 g of chow per day for one month. Except for the first day or two, they consumed all their food each day. When these animals are fed ad libitum, they consume 26 g of chow per day and the compounds have no effect on food consumption.
(§6) The mice or rats were weighed before the first treatment and once at the end of each indicated treatment period.

[3] = test system: ob/ob mice; assay: Plasma glucose, compound in chow, obese mice; format: in vivo, mouse (C57 B1/6J ob/ob)
Description: as §2, §3, §4, §5
[…] Thus, a 40 g mouse, fed the test compound at a concentration of 0.02 percent of the diet, would receive a dose of 20 mg/kg/day if it ate 4 g of chow per day.
as §6
Blood samples were collected before the first treatment and once at the end of each indicated treatment period by retro-orbital puncture using heparinized capillary tubes.
Plasma was separated by centrifugation in a Beckman microfuge for 5 minutes. Plasma glucose concentrations were determined with the Beckman glucose analyzer which uses a glucose oxidase method.

[4] = target: T2, β3-receptors (Rattus norvegicus, UniProt P26255); assay: Stimulation of adipocyte lipolysis (β3-effect); format: cell-based
T2 construct: Rat epididymal fat pads were excised and placed in 0.9% saline; from tissue; host or cells: collagenase-isolated adipocytes from rat epididymal fat pads
Description: as §1
The β3 -effect of the compounds was determined by their ability to stimulate adipocyte lipolysis. Rat epididymal fat pads were excised and placed in 0.9% saline. Four grams of tissue were transferred to a flask with 20 ml of aerated Krebs-Henseleit bicarbonate (KHB) buffer containing 3% fatty acid-free bovine serum albumin to which 75 mg of crude bacterial collagenase (Worthington) had been added. The tissue was incubated for about 45 minutes at 37° C. with gentle shaking. The cells were then washed three times with two volumes of KHB buffer, filtered through two layers of gauze, and brought to a final volume of 80 ml with KHB buffer. One ml aliquots of the cell suspension were added to plastic test tubes containing the appropriate additions of vehicle or compound. The cells were gassed for 1 minute with 95% O2 -5% CO2, capped, and incubated at 37° C. with continuous shaking for a total of 30 minutes. The reaction was stopped by adding 0.1 ml of 30% perchloric acid and 0.1 ml of chloroform. After centrifugation, 0.5 ml of supernatant was transferred to another test tube and neutralized with 0.04 ml of 3M K2 CO3 -0.5M triethanolamine. The amount-of glycerol generated from the hydrolysis of endogenous triglycerides was determined in a coupled-enzyme spectrophotometric assay. […] The test tubes were incubated for 40 minutes at 37° C. with constant shaking. […] This value was corrected for the amount of NADH generated in the absence of glycerol by incubating another aliquot of the neutralized extract with the same assay mixture but without glycerokinase.

[5] = target: T3, β1-receptors (Cavia porcellus, UniProt H0W3H1); assay: Effect on heart rate of isolated right atria (β1-effect); parameters: species or system guinea pig
T3 construct: from tissue; host or cells: guinea pig right atria
Description: as §1
Selectivity of a compound was determined using the following procedures. The effect on heart rate (β1 -effect) was determined using isolated right atria. […] The right atria were dissected and clamped at one end to a tissue holder and electrode assembly (MRA Corp.) and tied at the other end to a force-displacement transducer (Gould-Statham, Burco). The tissues were maintained at 32° C. in a 50 ml capacity glass chamber (MRA Corp.) preloaded with 0.5 g tension. Heart rate was monitored by a Grass polygragh. […] The increase in heart rate was calculated and considered to be the maximum response for that tissue. The tissues were then washed and allowed to equilibrate for 90 minutes. Cumulative concentration-response curves were then determined for each compound or vehicle. All responses were measured 5 minutes post-exposure.

[6] = dose 0.002 % wt of chow, week 1
[7] = dose 0.002 % wt of chow, week 4

T2 sequence (P26255 whole entry): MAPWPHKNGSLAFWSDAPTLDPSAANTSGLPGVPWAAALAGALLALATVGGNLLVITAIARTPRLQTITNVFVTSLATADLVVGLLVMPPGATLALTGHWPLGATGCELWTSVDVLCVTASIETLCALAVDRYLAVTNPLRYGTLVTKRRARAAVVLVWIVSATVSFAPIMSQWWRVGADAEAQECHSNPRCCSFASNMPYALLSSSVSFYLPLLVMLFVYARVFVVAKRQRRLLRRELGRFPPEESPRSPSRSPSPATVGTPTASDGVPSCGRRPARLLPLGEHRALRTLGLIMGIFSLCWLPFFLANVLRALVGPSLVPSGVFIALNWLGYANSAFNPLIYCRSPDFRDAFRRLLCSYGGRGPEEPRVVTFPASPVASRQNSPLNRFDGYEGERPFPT
T3 sequence (H0W3H1 1-470): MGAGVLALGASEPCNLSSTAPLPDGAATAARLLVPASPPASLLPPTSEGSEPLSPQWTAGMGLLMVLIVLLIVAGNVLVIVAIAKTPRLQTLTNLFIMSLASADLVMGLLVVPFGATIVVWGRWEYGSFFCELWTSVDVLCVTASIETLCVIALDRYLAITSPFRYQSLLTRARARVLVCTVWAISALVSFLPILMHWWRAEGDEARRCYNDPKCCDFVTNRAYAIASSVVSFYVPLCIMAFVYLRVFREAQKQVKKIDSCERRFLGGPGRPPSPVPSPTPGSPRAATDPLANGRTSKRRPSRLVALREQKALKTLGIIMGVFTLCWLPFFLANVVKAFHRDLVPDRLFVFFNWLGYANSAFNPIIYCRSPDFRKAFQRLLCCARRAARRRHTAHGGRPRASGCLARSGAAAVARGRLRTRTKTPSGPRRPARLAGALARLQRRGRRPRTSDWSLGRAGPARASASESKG
T1 sequence (P18762 whole entry): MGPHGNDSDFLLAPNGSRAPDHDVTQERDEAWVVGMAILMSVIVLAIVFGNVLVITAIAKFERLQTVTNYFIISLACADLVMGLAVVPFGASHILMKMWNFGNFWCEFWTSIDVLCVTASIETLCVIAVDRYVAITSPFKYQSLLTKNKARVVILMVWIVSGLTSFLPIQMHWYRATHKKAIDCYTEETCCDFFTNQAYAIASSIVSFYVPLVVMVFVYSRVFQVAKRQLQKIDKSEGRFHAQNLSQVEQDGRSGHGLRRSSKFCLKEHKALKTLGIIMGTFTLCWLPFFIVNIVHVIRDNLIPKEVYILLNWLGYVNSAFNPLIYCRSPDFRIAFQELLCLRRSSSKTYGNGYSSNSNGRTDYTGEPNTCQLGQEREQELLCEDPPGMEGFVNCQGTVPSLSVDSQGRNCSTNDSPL

With `COC(=O)C1(C(=O)OC)Oc2ccc(C[C@@H](C)NC[C@H](O)c3cccc(Cl)c3)cc2O1` (stereo in doubt) [CL1, (R* R*)-(±)-5-(2-((2-(3-chlorophenyl)-2-hydroxyethyl)amino)propyl)-1,3-benzodioxole-2,2-dicarboxylic acid, dimethyl ester hydrobromide] the EC50 [1] was 800 nM, the “Average Daily Food Consumption” value ([2]; dose 0.0006 % wt of chow) was 25 g/animal and the Change in weight ([2]; dose 0.0006 % wt of chow, week 1) was 14 grams. It also gave a Change in weight ([2]; dose 0.0006 % wt of chow, week 2) of 20 grams, a Change in weight ([2]; dose 0.0006 % wt of chow, week 3) of 27 grams and a Change in weight ([2]; dose 0.0006 % wt of chow, week 4) of 26 grams. The “Average Daily Food Consumption” value ([2]; dose 0.002 % wt of chow) was 25 g/animal, the Change in weight [2, 6] was 1 grams and the Change in weight ([2]; dose 0.002 % wt of chow, week 2) was 2 grams. For the same molecule, the Change in weight ([2]; dose 0.002 % wt of chow, week 3) was 3 grams, the Change in weight [2, 7] was 4 grams and the “Average Daily Food Consumption” value ([2]; dose 0.006 % wt of chow) was 25 g/animal. The Change in weight ([2]; dose 0.006 % wt of chow, week 1) was 10 grams, the Change in weight ([2]; dose 0.006 % wt of chow, week 2) was 4 grams and the Change in weight ([2]; dose 0.006 % wt of chow, week 3) was -15 grams. For the same molecule, the Change in weight ([2]; dose 0.006 % wt of chow, week 4) was -8 grams, the “Plasma Glucose Levels” value ([3]; dose 0.0005 % wt of chow, week 0 (before treatment)) was 270 mg/100 ml and the “Plasma Glucose Levels” value ([3]; dose 0.0005 % wt of chow, week 1) was 164 mg/100 ml. For the same molecule, the “Plasma Glucose Levels” value ([3]; dose 0.0005 % wt of chow, week 4) was 179 mg/100 ml, the “Plasma Glucose Levels” value ([3]; dose 0.002 % wt of chow, week 0 (before treatment)) was 276 mg/100 ml and the “Plasma Glucose Levels” value [3, 6] was 150 mg/100 ml. For the same molecule, the “Plasma Glucose Levels” value [3, 7] was 156 mg/100 ml, the “Plasma Glucose Levels” value ([3]; dose 0.005 % wt of chow, week 0 (before treatment)) was 237 mg/100 ml and the “Plasma Glucose Levels” value ([3]; dose 0.005 % wt of chow, week 1) was 143 mg/100 ml. For the same molecule, the “Plasma Glucose Levels” value ([3]; dose 0.005 % wt of chow, week 4) was 157 mg/100 ml, the “times more selective for lipolysis than prior art compound” value ([4]; CL2 vs BRL2, CL1 vs BRL1) was 3 times and the “Relative Selectivity (CL/BRL), Atria” value ([4]; CL2 vs BRL2, CL1 vs BRL1, lipolysis over atria) was 3.1. For the same molecule, the “Relative Selectivity (CL/BRL), Gly. Syn.” value ([4]; CL2 vs BRL2, CL1 vs BRL1, lipolysis over glycogen synthesis) was 3.0, the “Selectivity for Lipolysis over Atria ((EC50 - β1)/(EC50 - β3))” value ([4]; ratio EC50 β1 / EC50 β3) was 47 and the “Selectivity for Lipolysis over Gly. Syn. ((EC50 - β2)/(EC50 - β3))” value ([4]; ratio EC50 β2 / EC50 β3) was 27. It also gave an EC50 [5] of 14 nM.

Reference: patent publication US5373020A, “Substituted 5-(2-((2-aryl-2-hydroxyethyl)amino)propyl)-1,3-benzodioxoles” (American Cyanamid Company, priority 1993, dated 1994)
